As a reminder, the IC50 is the concentration that inhibits the measured activity by half. By inhibition is commonly meant how much of the control response was suppressed. In general, half-life refers to the time needed for the level to fall by half in the phase considered.

Active and inactive are the calls of the source.

Data set [1] has as its target T1, Protein-serine O-palmitoleoyltransferase porcupine (Homo sapiens, UniProt Q9H237).
T1 sequence (Q9H237 whole entry): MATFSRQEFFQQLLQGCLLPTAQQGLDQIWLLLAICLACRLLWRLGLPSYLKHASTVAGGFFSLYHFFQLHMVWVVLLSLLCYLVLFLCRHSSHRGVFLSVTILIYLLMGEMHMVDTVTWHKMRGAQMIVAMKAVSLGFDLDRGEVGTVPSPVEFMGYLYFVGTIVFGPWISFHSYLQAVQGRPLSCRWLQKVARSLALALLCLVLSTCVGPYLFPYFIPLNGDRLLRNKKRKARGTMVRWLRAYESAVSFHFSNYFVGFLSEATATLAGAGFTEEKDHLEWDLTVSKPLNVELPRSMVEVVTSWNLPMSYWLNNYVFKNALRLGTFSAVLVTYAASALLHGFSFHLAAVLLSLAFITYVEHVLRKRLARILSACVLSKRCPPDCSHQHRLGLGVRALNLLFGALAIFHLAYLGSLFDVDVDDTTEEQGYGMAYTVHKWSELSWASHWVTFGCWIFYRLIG
Briefly: Inhibition of porcupine (unknown origin) expressed in mouse L Wnt3A cells co-cultured with TM3 cells harboring luciferase reporter gene assessed as reduction in Wnt ligand-driven LEF/TCF-dependent transcriptional activity. The data set is classed as cell-based. (In general: A reporter such as luciferase makes a cellular process visible.)

In data set [2] the target is T2, Protein-serine O-palmitoleoyltransferase porcupine (Homo sapiens) (UniProt Q9H237).
T2 sequence (whole entry): T1 sequence (Q9H237 whole entry)
Briefly: Inhibition of porcupine (unknown origin) expressed in HEK293T cells transfected with pLinbin- Wnt3A plasmid assessed as inhibition of Wnt3A secretion at 0.1 uM incubated for 48 hrs by Western blotting method. The format is cell-based. The conditions noted are these: HEK-293T. (In western blotting, separated proteins are transferred to a membrane and probed.)

The nature of data set [3]: Chemical stability in simulated gastric fluid assessed as remaining compound level incubated for 0 hrs at 200 uM at 40 degC by HPLC method. The format is physicochemical. The conditions noted are these: read-out: Stability.
Data set [4] in a line: Chemical stability in simulated gastric fluid assessed as remaining compound level incubated for 4 hrs at 200 uM at 40 degC by HPLC method. The conditions noted are these: read-out: Stability. The data set is classed as physicochemical.
Data set [5] in a line: Chemical stability in simulated gastric fluid assessed as remaining compound level incubated for 8 hrs at 200 uM at 40 degC by HPLC method. The format is physicochemical. The conditions noted are these: read-out: Stability.
Data set [6] can be described thus: Stability of the compound in rat plasma assessed as drug remaining at 1 uM incubated for 30 mins by LC-MS/MS method. The data set is classed as ADME, cell-free. The conditions noted are these: read-out: Stability.
A short description of data set [7]: Stability of the compound in rat plasma assessed as drug remaining at 1 uM incubated for 1 hr by LC-MS/MS method. The format is ADME, cell-free. The conditions noted are these: read-out: Stability.
Data set [8] is described as follows: Stability of the compound in rat plasma assessed as drug remaining at 1 uM incubated for 8 hr by LC-MS/MS method. The format is ADME, cell-free. The conditions noted are these: read-out: Stability.
Data set [9] is described as follows: Intrinsic clearance in human liver microsomes at 1 uM incubated for 60 mins in presence of NADPH by LC-MS/MS method. The data set is classed as ADME. The conditions noted are these: read-out: CLH. In general terms: Liver microsomes are a subcellular fraction often used to study metabolism.
Data set [10] can be described thus: Intrinsic clearance in mouse liver microsomes at 1 uM incubated for 60 mins in presence of NADPH by LC-MS/MS method. The conditions noted are these: read-out: CLH. The data set is classed as ADME.
Data set [11] in a line: Half life in human liver microsomes at 1 uM in presence of NADPH by LC-MS/MS method. The format is ADME.
Data set [12] can be described thus: Half life in mouse liver microsomes at 1 uM in presence of NADPH by LC-MS/MS method. The format is ADME.
The next data set has as its target CYP3A4 (Homo sapiens, UniProt P08684). Briefly: Inhibition of CYP3A4 in human liver microsomes at 10 uM pre-incubated for 10 mins before midazolam substrate and NADPH addition by LC-MS/MS method. The format is ADME. The conditions noted are these: probe midazolam.
In the next data set the target is CYP2D6 (Homo sapiens, UniProt P10635). Briefly: Inhibition of CYP2D6 in human liver microsomes at 10 uM pre-incubated for 10 mins before dextromethorphan substrate and NADPH addition by LC-MS/MS method. The data set is classed as ADME. The conditions noted are these: probe dextromethorphan.
Sequence of CYP2D6 (P10635 whole entry): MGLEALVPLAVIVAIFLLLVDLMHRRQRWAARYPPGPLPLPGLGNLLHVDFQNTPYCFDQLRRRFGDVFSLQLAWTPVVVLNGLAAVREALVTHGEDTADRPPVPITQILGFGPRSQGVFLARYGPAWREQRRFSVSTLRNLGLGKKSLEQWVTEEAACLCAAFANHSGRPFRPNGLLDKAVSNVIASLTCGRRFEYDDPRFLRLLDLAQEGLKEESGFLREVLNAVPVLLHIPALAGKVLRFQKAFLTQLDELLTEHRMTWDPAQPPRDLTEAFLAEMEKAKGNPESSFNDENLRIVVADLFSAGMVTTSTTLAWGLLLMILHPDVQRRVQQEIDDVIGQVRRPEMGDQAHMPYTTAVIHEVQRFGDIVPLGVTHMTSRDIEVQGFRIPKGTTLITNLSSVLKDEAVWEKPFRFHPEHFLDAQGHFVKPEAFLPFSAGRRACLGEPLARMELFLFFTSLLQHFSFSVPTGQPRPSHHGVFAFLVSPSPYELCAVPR
Data set [13] is described as follows: Effect on total intracellular Wnt3a levels in HEK293T cells transfected with pLinbin- Wnt3A plasmid at 0.1 uM incubated for 48 hrs by Western blotting method. The data set is classed as ADME, cell-based. The conditions noted are these: human, hek-293t.
The target of data set [14] is T2, Protein-serine O-palmitoleoyltransferase porcupine (Homo sapiens). Briefly: Potency index, ratio of IC50 for LGK974 to IC50 for test compound for inhibition of porcupine (unknown origin) expressed in mouse L Wnt3A cells co-cultured with HEK293 STF cells by STF reporter gene based paracrine cellular reporter gene assay. The format is cell-based.

Sequence of CYP3A4 (P08684 whole entry): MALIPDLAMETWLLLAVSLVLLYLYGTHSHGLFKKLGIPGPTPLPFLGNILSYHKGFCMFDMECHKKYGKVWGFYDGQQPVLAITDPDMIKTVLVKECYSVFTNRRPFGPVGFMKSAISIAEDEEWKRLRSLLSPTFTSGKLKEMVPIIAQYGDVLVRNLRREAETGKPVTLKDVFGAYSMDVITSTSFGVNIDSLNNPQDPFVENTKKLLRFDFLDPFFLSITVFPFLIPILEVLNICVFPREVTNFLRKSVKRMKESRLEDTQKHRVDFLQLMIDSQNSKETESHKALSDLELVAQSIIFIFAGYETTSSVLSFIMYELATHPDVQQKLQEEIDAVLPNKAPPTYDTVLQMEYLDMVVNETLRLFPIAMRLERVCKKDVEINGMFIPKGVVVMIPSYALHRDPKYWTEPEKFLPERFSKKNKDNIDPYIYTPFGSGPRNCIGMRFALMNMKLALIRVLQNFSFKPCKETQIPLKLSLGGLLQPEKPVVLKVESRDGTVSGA

In the case of `CC(=O)N1CCN(c2ccc(OCC(=O)Nc3ccc(-c4cnccn4)cn3)cc2)CC1`, the IC50 in [1] was determined as 483 nM.

Consider `COc1ccc2cc(OCC(=O)Nc3ccc(-c4cnccn4)cn3)ccc2c1`, for which the concentration for half-maximal inhibition (IC50) in [1] was greater than 1000 nM.

As for `O=C(CNc1ccc2[nH]ncc2c1)Nc1ccc(-c2cnccn2)cn1`, the IC50 in data set [1] was greater than 1000 nM.

On to `Cc1cc(-c2cccc(NCC(=O)Nc3ccc(-c4cnccn4)cn3)c2)ccn1`, for which the IC50 in data set [1] worked out at 164 nM.

As for `Cc1cc(-c2ccc(NCC(=O)Nc3ccc(-c4cnccn4)cn3)cc2)ccn1`, the IC50 in data set [1] is 0.96 nM. For the same compound, in data set [2], the inhibition result is “Active”. For the same compound, in data set [3], the remaining at 0 h, 200 µM was 95%. The remaining at 4 h, 200 µM in data set [4] was 88%. In addition, the remaining at 8 h, 200 µM in data set [5] was 85%. Moreover, the remaining at 0.5 h, 1 µM in data set [6] worked out at 100%. The remaining at 1 h, 1 µM in data set [7] worked out at 100%. The remaining at 8 h, 1 µM in [8] came to 98%. Moreover, the CLint scaled at 1 µM in [9] stood at 45 mL/min/kg; in data set [10], 440 mL/min/kg. For the same compound, the values for the half-life at 1 µM in [11] and in data set [12] were 39 min and 14 min, respectively. For the same compound, the inhibition at 10 µM stood at 50% against CYP3A4 and 53% against CYP2D6. For the same compound, the Activity entry in [13] is “Non-toxic”.

With `Cc1cc(-c2ccc(OC(=O)Nc3ccc(-c4ccccc4)cc3)cc2)ccn1`, the IC50 in data set [1] was found to be 5 nM.

On to `CC(=O)N1CCc2ccc(OCC(=O)Nc3ccc(-c4cnccn4)cn3)cc2C1`, for which, in data set [1], the 50% inhibitory concentration (IC50) worked out at 24 nM.

Consider `O=C(COc1ccc2ccncc2c1)Nc1ccc(-c2cnccn2)cn1`, for which the IC50 in data set [1] stood at 30 nM.

In the case of `N#Cc1ccc2cc(OCC(=O)Nc3ccc(-c4cnccn4)cn3)ccc2c1`, in data set [1], the IC50 is 2.7 nM.

In the case of `O=C(COc1ccc2[nH]ncc2c1)Nc1ccc(-c2cnccn2)cn1`, the IC50 in data set [1] was greater than 1000 nM.

Turning to `O=C(COc1ccc2ccccc2c1)Nc1ccc(-c2cnccn2)cn1`, in [1], the IC50 was greater than 1000 nM.

Turning to `Cn1ncc2cc(OCC(=O)Nc3ccc(-c4cnccn4)cn3)ccc21`, in data set [1], the IC50 was greater than 1000 nM.

As for `Cc1cc(-c2ccc(OCC(=O)Nc3ccc(-c4cnccn4)cn3)cc2)ccn1`, the IC50 in data set [1] amounted to 0.23 nM. Further, in [2], the inhibition result was “Active”. For the same compound, in [3], the remaining at 0 h, 200 µM was 96%. In addition, the remaining at 4 h, 200 µM in [4] was 81%. In data set [5], the remaining at 8 h, 200 µM is 67%. Further, the remaining at 0.5 h, 1 µM in data set [6] worked out at 97%. Besides, in data set [7], the remaining at 1 h, 1 µM is 90%. Also, the remaining at 8 h, 1 µM in data set [8] was determined as 84%. For the same compound, the CLint scaled at 1 µM in data set [9] came out at 135 mL/min/kg; in data set [10], 1430 mL/min/kg. Also, the half-life at 1 µM in data set [11] amounted to 13 min; in data set [12], 4.3 min. Besides, the results for the inhibition at 10 µM against CYP3A4 and against CYP2D6 were 47% and 19%, respectively. Moreover, the Activity result in data set [13] is “Non-toxic”.

For `Cc1cc(-c2ccc(N(C)CC(=O)Nc3ccc(-c4cnccn4)cn3)cc2)ccn1`, the IC50 in data set [1] is 0.67 nM.

As for `Cc1cc(-c2cccc(SCC(=O)Nc3ccc(-c4cnccn4)cn3)c2)ccn1`, the IC50 in data set [1] was 40 nM.

For `N#Cc1ccc(OCC(=O)Nc2ccc(-c3cnccn3)cn2)cc1`, the IC50 in [1] amounted to 485 nM.

In the case of `Nc1noc2ccc(OCC(=O)Nc3ccc(-c4cnccn4)cn3)cc12`, in data set [1], the IC50 is greater than 1000 nM.

On to `Cc1cc(-c2ccc(OC(C)C(=O)Nc3ccc(-c4cnccn4)cn3)cc2)ccn1` (stereo not given), for which, in [1], the IC50 was found to be 0.11 nM. Also, the inhibition entry in [2] is “Active”. Also, in [3], the remaining at 0 h, 200 µM was 97%. The remaining at 4 h, 200 µM in [4] was 85%. Also, the remaining at 8 h, 200 µM in [5] was 71%. Also, the remaining at 0.5 h, 1 µM in data set [6] came out at 100%. Further, the remaining at 1 h, 1 µM in data set [7] was 100%. Moreover, in data set [8], the remaining at 8 h, 1 µM was 100%. For the same compound, the CLint scaled at 1 µM in data set [9] came to 43 mL/min/kg; in [10] it was 321 mL/min/kg. For the same compound, the half-life at 1 µM in data set [11] was determined as 41 min; in data set [12], 19 min. In addition, the inhibition at 10 µM turned out to be 67% against CYP3A4 and 53% at CYP2D6. Also, the Activity result in data set [13] is given as “Non-toxic”. The Ratio IC50 in data set [14] was determined as 5.

With `Cn1ncc2cc(NCC(=O)Nc3ccc(-c4cnccn4)cn3)ccc21`, the IC50 in [1] is greater than 1000 nM.

Consider `Cc1cc(-c2cccc(OCC(=O)Nc3ccc(-c4cnccn4)cn3)c2)ccn1`, for which the IC50 in [1] is 188 nM.

Regarding `Cc1cc(-c2ccc(SCC(=O)Nc3ccc(-c4cnccn4)cn3)cc2)ccn1`, in data set [1], the IC50 was determined as 0.53 nM. Also, the remaining at 0 h, 200 µM in data set [3] is 98%. The remaining at 4 h, 200 µM in data set [4] was 89%. Also, the remaining at 8 h, 200 µM in data set [5] was 83%. Further, the remaining at 0.5 h, 1 µM in [6] is 93%. Further, the remaining at 1 h, 1 µM in [7] is 91%. Moreover, in data set [8], the remaining at 8 h, 1 µM is 83%. Further, the CLint scaled at 1 µM in data set [9] came to 263 mL/min/kg; in data set [10], 1790 mL/min/kg. Besides, the results for the half-life at 1 µM in data set [11] and in data set [12] were 6.8 min and 3.4 min, respectively. Further, the inhibition at 10 µM was determined as 60% against CYP3A4 and 45% against CYP2D6.

For the compound `Cc1cc(-c2ccc(CCC(=O)Nc3ccc(-c4cnccn4)cn3)cc2)ccn1`, the IC50 in data set [1] was determined as 0.19 nM. Further, the remaining at 0 h, 200 µM in data set [3] is 100%. In data set [4], the remaining at 4 h, 200 µM was 97%. Also, the remaining at 8 h, 200 µM in [5] was 93%. Further, the remaining at 0.5 h, 1 µM in data set [6] was 98%. Further, in data set [7], the remaining at 1 h, 1 µM stood at 94%. In addition, the remaining at 8 h, 1 µM in data set [8] stood at 90%. The values for the CLint scaled at 1 µM in data set [9] and in data set [10] were 84 mL/min/kg and 1260 mL/min/kg, respectively. For the same compound, the results for the half-life at 1 µM in data set [11] and in data set [12] were 21 min and 4.8 min, respectively. Further, the inhibition at 10 µM against CYP3A4 worked out at 45%; at CYP2D6, 47%.

On to `Cc1cc(-c2ccc(OC(=O)Nc3ccc(-c4cccnc4)cc3)cc2)ccn1`, for which, in data set [1], the IC50 was found to be 2.2 nM.

These data come from ChEMBL document CHEMBL3621074, “Exploration of the linkage elements of porcupine antagonists led to potent Wnt signaling pathway inhibitors” (Bioorg Med Chem, 2015).
